Here are results for two compounds from patent US20170266152A1, “PHARMACEUTICAL COMPOSITION, METHODS FOR TREATING AND USES THEREOF” (Boehringer Ingelheim International GmbH, priority 2016, published 2017).

Data set [1] can be described thus: Clinical studies of haemodynamic, vascular and autonomic cardiovascular effects of empagliflozin. The class given is in vivo. An excerpt:
It may be assumed that altered glucose and sodium gradients within the kidney may generate a sympathoinhibitory afferent renal nerve signal. The lack of sympathetic activation may contribute to a beneficial cardiovascular and renal profile of empagliflozin (cardiorenal axis). Based on clinical and non-clinical studies including mechanistic considerations, such as the effect of empagliflozin on human autonomic cardiovascular regulation, the use of empagliflozin in the treatment and prevention of certain diseases and conditions, in particular in chronic heart failure, acute heart failure and chronic kidney disease, is described hereinbefore and hereinafter.

The conditions of data set [2]: patients with type 2 diabetes mellitus and high cardiovascular risk; cited from earlier work.
The conditions of data set [3]: Cherney et al. 2014; cited from earlier work.
The conditions of data set [4]: crystalline form (WO 2006/117359, WO 2011/039107); cited from earlier work.
The conditions of data set [5]: metformin on its own, in the diabetic; cited from earlier work.

`OC[C@H]1O[C@@H](c2ccc(Cl)c(Cc3ccc(O[C@H]4CCOC4)cc3)c2)[C@H](O)[C@@H](O)[C@@H]1O` [empagliflozin, 1-chloro-4-(β-D-glucopyranos-1-yl)-2-[4-((S)-tetrahydrofuran-3-yloxy)-benzyl]-benzene]: the reflex-mediated sympathetic activation result in data set [1] (in contrast to increases observed with diuretics) is “not being associated with clinically relevant reflex-mediated sympathetic activation”. Also, in data set [1] (treatment with empagliflozin), the blood pressure entry is “blood pressure reductions”; the heart rate entry is given as “without clinically relevant changes of the heart rate”; the “rate pressure product (RPP), surrogate marker of cardiac oxygen demand” value is recorded as “improving rate pressure product”. Also, the “risk of hospitalization for heart failure” value in data set [2] is “reduced the risk”. In data set [3], the arterial stiffness result is given as “reduced arterial stiffness”, the direct vascular effects result is recorded as “direct vascular effects” and the diuretic effect result is listed as “shows a diuretic effect”. In addition, in data set [4], the physico-chemical stability entry was “physico-chemically stable” and the solubility entry was “good solubility properties”.

Regarding `CN(C)C(=N)N=C(N)N` [metformin], the “average improvement in the HbA1c value” in data set [5] is 1.0-1.5%.
